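1) Cells in 96-well plates. 2) Compound, 48 h, 5 concentrations. 3) Linear interpolation between surrounding doses. 4) Unreached endpoint = highest concentration. TGI marks complete inhibition of growth.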
What was measured:
Assay in all cases: DTP human tumour cell line panel, 48 h
OVCAR-5 ovarian = tested on: OVCAR-5 ovarian
MALME-3M melanoma = tested on: MALME-3M melanoma
A549 NSCLC = tested on: A549 NSCLC
HCT-15 colon = tested on: HCT-15 colon
NCI-H522 lung = tested on: NCI-H522 lung
ACHN renal = tested on: ACHN renal
MDA-N = tested on: MDA-N
MDA-MB-435 = tested on: MDA-MB-435
HT29 colon = tested on: HT29 colon
COLO 205 colon = tested on: COLO 205 colon
MDA-MB-231 breast = tested on: MDA-MB-231 breast
K-562 leukemia = tested on: K-562 leukemia
NCI-H226 lung = tested on: NCI-H226 lung
SR leukemia = tested on: SR leukemia
SK-MEL-5 melanoma = tested on: SK-MEL-5 melanoma
M14 melanoma = tested on: M14 melanoma
T-47D breast = tested on: T-47D breast
HS 578T breast = tested on: HS 578T breast
RXF 393 renal = tested on: RXF 393 renal
SK-OV-3 ovarian = tested on: SK-OV-3 ovarian
OVCAR-8 ovarian = tested on: OVCAR-8 ovarian
OVCAR-4 ovarian = tested on: OVCAR-4 ovarian
HL-60(TB) leukemia = tested on: HL-60(TB) leukemia
EKVX NSCLC = tested on: EKVX NSCLC
TK-10 renal = tested on: TK-10 renal
SK-MEL-28 melanoma = tested on: SK-MEL-28 melanoma
PC-3 prostate = tested on: PC-3 prostate
U251 CNS = tested on: U251 CNS
SNB-75 CNS = tested on: SNB-75 CNS
NCI-H460 lung = tested on: NCI-H460 lung
SW-620 colon = tested on: SW-620 colon
SF-268 CNS = tested on: SF-268 CNS
SF-539 CNS = tested on: SF-539 CNS
DU-145 prostate = tested on: DU-145 prostate
OVCAR-3 ovarian = tested on: OVCAR-3 ovarian
CCRF-CEM leukemia = tested on: CCRF-CEM leukemia
SF-295 CNS = tested on: SF-295 CNS
MOLT-4 leukemia = tested on: MOLT-4 leukemia
IGROV1 ovarian = tested on: IGROV1 ovarian
HCC-2998 colon = tested on: HCC-2998 colon
MCF7 breast = tested on: MCF7 breast
KM12 colon = tested on: KM12 colon
SN12C renal = tested on: SN12C renal
HOP-62 NSCLC = tested on: HOP-62 NSCLC
HCT-116 colon = tested on: HCT-116 colon
NCI-H23 lung = tested on: NCI-H23 lung
SNB-19 CNS = tested on: SNB-19 CNS
BT-549 breast = tested on: BT-549 breast
UACC-257 melanoma = tested on: UACC-257 melanoma
RPMI-8226 leukemia = tested on: RPMI-8226 leukemia
786-0 renal = tested on: 786-0 renal
HOP-92 NSCLC = tested on: HOP-92 NSCLC

COc1ccc2c(c1OC)C(=O)N/C2=C\c1c(CCN(C)C)cc2c(c1OC)OCO2
TGI (OVCAR-5 ovarian): > 100 µM
TGI (MALME-3M melanoma): > 100 µM
TGI (A549 NSCLC): > 100 µM
TGI (HCT-15 colon): > 100 µM
TGI (NCI-H522 lung): > 100 µM
TGI (ACHN renal): > 100 µM
TGI (MDA-N): > 100 µM
TGI (MDA-MB-435): > 100 µM
TGI (HT29 colon): > 100 µM
TGI (COLO 205 colon): > 100 µM
TGI (MDA-MB-231 breast): > 100 µM
TGI (K-562 leukemia): > 100 µM
TGI (NCI-H226 lung): > 100 µM
TGI (SR leukemia): > 100 µM
TGI (SK-MEL-5 melanoma): > 100 µM
TGI (M14 melanoma): > 100 µM
TGI (T-47D breast): > 100 µM
TGI (HS 578T breast): > 100 µM
TGI (RXF 393 renal): 84.1 µM
TGI (SK-OV-3 ovarian): > 100 µM
TGI (OVCAR-8 ovarian): > 100 µM
TGI (OVCAR-4 ovarian): > 100 µM
TGI (HL-60(TB) leukemia): > 100 µM
TGI (EKVX NSCLC): > 100 µM
TGI (TK-10 renal): > 100 µM
TGI (SK-MEL-28 melanoma): > 100 µM
TGI (PC-3 prostate): > 100 µM
TGI (U251 CNS): > 100 µM
TGI (SNB-75 CNS): > 100 µM
TGI (NCI-H460 lung): > 100 µM
TGI (SW-620 colon): > 100 µM
TGI (SF-268 CNS): > 100 µM
TGI (SF-539 CNS): > 100 µM
TGI (DU-145 prostate): > 100 µM
TGI (OVCAR-3 ovarian): > 100 µM
TGI (CCRF-CEM leukemia): > 100 µM
TGI (SF-295 CNS): > 100 µM
TGI (MOLT-4 leukemia): > 100 µM
TGI (IGROV1 ovarian): > 100 µM
TGI (HCC-2998 colon): > 100 µM
TGI (MCF7 breast): > 100 µM
TGI (KM12 colon): > 100 µM
TGI (SN12C renal): > 100 µM
TGI (HOP-62 NSCLC): > 100 µM
TGI (HCT-116 colon): > 100 µM
TGI (NCI-H23 lung): > 100 µM
TGI (SNB-19 CNS): > 100 µM
TGI (BT-549 breast): > 100 µM
TGI (UACC-257 melanoma): > 100 µM
TGI (RPMI-8226 leukemia): > 100 µM
TGI (786-0 renal): > 100 µM
TGI (HOP-92 NSCLC): > 100 µM

Source: PubChem BioAssay (NCI)
